From patent US20240158446A1, “CYCLIC COMPOUND HAVING SELECTIVE INHIBITORY ACTION ON KRAS OVER HRAS AND NRAS” (CHUGAI SEIYAKU KABUSHIKI KAISHA, priority 2021, published 2024)
pKd: −log10 of the molar value. *1 amine or outer side, *2 acyl side, *3 side chain or, on linkers, in order; H or OH if unused. Where a SMILES comes first, the peptide text is derived from it. Bridges are numbered along the chain shown (N, C = ends). [ ]: non-standard residue; d: D form. The star is where a group is joined. hPhe(3-Cl-4-CF3) = N[C@@H](CCc1ccc(C(F)(F)F)c(Cl)c1)C(=O)O; NPrPhe(4-CF3) = CCCN[C@@H](Cc1ccc(C(F)(F)F)cc1)C(=O)O; X2 = CCCN([C@@H](COC1CCC1)C(=O)[*:2])[*:1]; NMeGly(cPent) = CN[C@H](C(=O)O)C1CCCC1; Ac4c(3,3-Me2) = CC1(C)CC(N)(C(=O)O)C1; NMeD = CN[C@@H](CC(=O)O)C(=O)O; NMeL = CN[C@@H](CC(C)C)C(=O)O; Morpholide = C1CN(*)CCO1; NMeA = CN[C@@H](C)C(=O)O; Aze = O=C(O)[C@@H]1CCN1; Ac4c = NC1(C(=O)O)CCC1; Sar = CNCC(=O)O

Columns and labels:
[1] = target: GDP-bound KRAS wild-type protein (Homo sapiens, UniProt P01116); assay: Binding to KRAS by surface plasmon resonance (SPR), Single Cycle Kinetics; conditions: SPR, Single Cycle Kinetics, GDP-bound KRAS wild-type protein; read-out: KRAS KD
[2] = target: GDP-bound NRAS wild-type protein (Homo sapiens, UniProt P01111); assay: Binding to NRAS by surface plasmon resonance (SPR), Single Cycle Kinetics; conditions: ratio of KD for GDP-bound NRAS wild-type protein to KD for KRAS, SPR
[3] = test system: human lung cancer strain NCI-H441; assay: cells; conditions: NCI-H441, 96 h, read-out: NCI-H441 IC50 (nM), NCI-H441 cell proliferation, 4 days, CellTiter-Glo;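 also: cell proliferation inhibition after four days measured by CellTiter-Glo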
[4] = target: GDP-bound HRAS wild-type protein (Homo sapiens, UniProt P01112); assay: Binding to HRAS by surface plasmon resonance (SPR), Single Cycle Kinetics; conditions: ratio of KD for GDP-bound HRAS wild-type protein to KD for KRAS, SPR
Sequence of GDP-bound HRAS wild-type protein (P01112 whole entry): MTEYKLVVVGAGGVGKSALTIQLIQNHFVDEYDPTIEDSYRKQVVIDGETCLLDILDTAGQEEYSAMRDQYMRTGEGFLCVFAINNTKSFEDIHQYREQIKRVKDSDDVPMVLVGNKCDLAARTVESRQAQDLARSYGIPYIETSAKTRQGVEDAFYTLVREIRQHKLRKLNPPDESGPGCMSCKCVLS

Sequence of GDP-bound NRAS wild-type protein (P01111 whole entry): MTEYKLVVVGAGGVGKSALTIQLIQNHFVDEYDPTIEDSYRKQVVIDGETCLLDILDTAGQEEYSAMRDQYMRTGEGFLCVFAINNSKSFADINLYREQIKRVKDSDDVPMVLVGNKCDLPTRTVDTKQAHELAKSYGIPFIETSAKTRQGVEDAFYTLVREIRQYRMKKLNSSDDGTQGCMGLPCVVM
Sequence of GDP-bound KRAS wild-type protein (P01116 whole entry): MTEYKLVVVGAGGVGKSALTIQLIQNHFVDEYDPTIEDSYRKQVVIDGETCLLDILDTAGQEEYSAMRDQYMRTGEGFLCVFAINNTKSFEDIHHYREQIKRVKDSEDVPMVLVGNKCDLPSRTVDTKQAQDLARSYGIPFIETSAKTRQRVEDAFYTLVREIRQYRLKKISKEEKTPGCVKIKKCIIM

pKd [1]	IC50 [3]	SMILES	NRAS/KRAS (KD ratio) [2]	HRAS/KRAS (KD ratio) [4]
10.40	1.8 nM	CCC[C@H]1C(=O)N[C@@H]([C@@H](C)CC)C(=O)N(C)CC(=O)N(C)[C@H]2C/C=C\CCN(C2=O)[C@@H](Cc2ccc(C(F)(F)F)cc2)C(=O)N(C)CC(=O)N[C@@H](CCc2cc(F)c(C(F)(F)F)c(F)c2)C(=O)N2C[C@H](OCC)C[C@H]2C(=O)NC2(CC(C)(C)C2)C(=O)N(C)[C@@H](C2CCCC2)C(=O)N(C)[C@H](C(=O)N(C)C)CC(=O)N1C [PP1645]	A (a compound having 10 or more and less than 20 is denoted as A)	A (a compound having 10 or more and less than 20 is denoted as A)
9.05	74.8 nM	CCCN1C(=O)[C@@H]2CCN2C(=O)[C@H](C)N(C)C(=O)[C@H]([C@@H](C)CC)NC(=O)[C@H](CC(C)C)N(C)C(=O)C[C@@H](C(=O)N2CCOCC2)N(C)C(=O)[C@H](C2CCCC2)N(C)C(=O)C2(CCC2)NC(=O)[C@@H]2CCCN2C(=O)[C@H](CCc2ccc(C(F)(F)F)c(Cl)c2)NC(=O)CN(C)C(=O)[C@@H]1COC1CCC1 [PP1818] ([NMeL]I[NMeA][Aze][X2][Sar][hPhe(3-Cl-4-CF3)]P[Ac4c][NMeGly(cPent)][NMeD]-Morpholide; lactam N-11)	C (A compound having a KD ratio of 0.1 or more and less than 3 is denoted as C)	B (a compound having 3 or more and less than 10 is denoted as B)
10.60	1.5 nM	CC[C@H](C)[C@@H]1NC(=O)[C@H](CC(F)(F)F)N(C)C(=O)C[C@@H](C(=O)N(C)C)N(C)C(=O)[C@H](C2CCCC2)N(C)C(=O)C2(CC(C)(C)C2)NC(=O)[C@@H]2C[C@@H](F)CN2C(=O)[C@H](CCc2cc(F)c(C(F)(F)F)c(F)c2)NC(=O)CN(C)C(=O)[C@H](Cc2ccc(C(F)(F)F)cc2)N2CC/C=C\C[C@@H](C2=O)N(C)C(=O)CN(C)C1=O [PP1688]	A (a compound having 10 or more and less than 20 is denoted as A)	A (a compound having 10 or more and less than 20 is denoted as A)
8.60	150 nM	CCO[C@@H]1C[C@H]2C(=O)NC3(CC(C)(C)C3)C(=O)N(C)[C@@H](C(CC)CC)C(=O)N(C)[C@H](CC)CC(=O)N(C)[C@@H](CC3CC3)C(=O)N[C@@H]([C@@H](C)CC)C(=O)N(C)CC(=O)N(C)[C@H]3C/C=C\CCN(C3=O)[C@@H](Cc3ccc(C(F)(F)F)cc3)C(=O)N(C)CC(=O)N[C@@H](CCc3cc(F)c(C(F)(F)F)c(F)c3)C(=O)N2C1 [PP1628]	A (a compound having 10 or more and less than 20 is denoted as A)	A (a compound having 10 or more and less than 20 is denoted as A)
9.89	9.9 nM	CC[C@H](C)[C@@H]1NC(=O)[C@H](CC)N(C)C(=O)C[C@@H](C(=O)N(C)CC)N(C)C(=O)[C@H](C2CCCC2)N(C)C(=O)C2(CC(C)(C)C2)NC(=O)[C@@H]2C[C@H](C)CN2C(=O)[C@H](CCc2ccc(C(F)(F)F)c(Cl)c2)NC(=O)CN(C)C(=O)[C@H](Cc2ccc(C)cc2)N2CC/C=C\C[C@@H](C2=O)N(C)C(=O)CN(C)C1=O [PP1874]	A (a compound having 10 or more and less than 20 is denoted as A)	A (a compound having 10 or more and less than 20 is denoted as A)
10.42	2.7 nM	CCO[C@@H]1C[C@H]2C(=O)NC3(CC(C)(C)C3)C(=O)N(C)[C@@H](C3CCCC3)C(=O)N(C)[C@H](C(=O)N(C)C)CC(=O)N(C)[C@@H](CC(F)(F)F)C(=O)N[C@@H]([C@@H](C)CC)C(=O)N(C)CC(=O)N(C)[C@H]3C/C=C\CCN(C3=O)[C@@H](Cc3ccc(C(F)(F)F)cc3)C(=O)N(C)CC(=O)N[C@@H](CCc3cc(F)c(C(F)(F)F)c(F)c3)C(=O)N2C1 [PP1644]	A (a compound having 10 or more and less than 20 is denoted as A)	A (a compound having 10 or more and less than 20 is denoted as A)
9.89	88.8 nM	CC[C@H](C)[C@@H]1NC(=O)[C@H](CC2CC2)N(C)C(=O)C[C@@H](C(=O)N(C)C)N(C)C(=O)[C@H](C2CCCC2)N(C)C(=O)C2(CCC2)NC(=O)[C@@H]2C[C@@H](C)CN2C(=O)[C@H](CCc2ccc(C(F)(F)F)c(OC)c2)NC(=O)CN(C)C(=O)[C@H](Cc2ccc(C)cc2)N2CC/C=C\C[C@@H](C2=O)N(C)C(=O)CN(C)C1=O [PP1863]	A (a compound having 10 or more and less than 20 is denoted as A)	A (a compound having 10 or more and less than 20 is denoted as A)
10.41	3.3 nM	CCO[C@@H]1C[C@H]2C(=O)NC3(CC(C)(C)C3)C(=O)N(C)[C@@H](C3CCCC3)C(=O)N(C)[C@H](C(=O)N(C)C)CC(=O)N(C)[C@@H](CC3CC3)C(=O)N[C@@H]([C@@H](C)CC)C(=O)N(C)CC(=O)N(C)[C@H]3C/C=C\CCN(C3=O)[C@@H](Cc3ccc(C(F)(F)F)cc3)C(=O)N(C)CC(=O)N[C@@H](CCc3ccc(C(F)(F)F)c(Cl)c3)C(=O)N2C1 [PP1749]	A (a compound having 10 or more and less than 20 is denoted as A)	A (a compound having 10 or more and less than 20 is denoted as A)
9.92	9.5 nM	CCO[C@@H]1C[C@H]2C(=O)NC3(CC(C)(C)C3)C(=O)N(C)[C@@H](C3CCCC3)C(=O)N(C)[C@H](C(=O)N(C)C)CC(=O)N(C)[C@@H](CC(C)C)C(=O)N[C@@H]([C@@H](C)CC)C(=O)N(C)CC(=O)N(C)[C@H]3C/C=C\CCN(C3=O)[C@@H](Cc3ccc(C(F)(F)F)cc3)C(=O)N(C)CC(=O)N[C@@H](CCc3ccc(C(F)(F)F)c(F)c3)C(=O)N2C1 [PP1931]	A (a compound having 10 or more and less than 20 is denoted as A)	B (a compound having 3 or more and less than 10 is denoted as B)
10.22	4 nM	CCO[C@@H]1C[C@H]2C(=O)N(C)C3(CCCC3)C(=O)N(C)[C@@H](C3CCCC3)C(=O)N(C)[C@H](C(=O)N(C)C)CC(=O)N(C)[C@@H](CC)C(=O)N[C@@H]([C@@H](C)CC)C(=O)N(C)CC(=O)N(C)[C@H]3C/C=C\CCN(C3=O)[C@@H](Cc3ccc(C)cc3)C(=O)N(C)CC(=O)N[C@@H](CCc3cc(F)c(C(F)(F)F)c(F)c3)C(=O)N2C1 [PP1806]	A (a compound having 10 or more and less than 20 is denoted as A)	B (a compound having 3 or more and less than 10 is denoted as B)
9.31	16.8 nM	CCCN1C(=O)CN(C)C(=O)CN(C)C(=O)[C@H]([C@@H](C)CC)NC(=O)[C@H](CC(C)C)N(C)C(=O)C[C@@H](C(=O)N2CCOCC2)N(C)C(=O)[C@H](C2CCCC2)N(C)C(=O)C2(CCC2)NC(=O)[C@H](C)N(C)C(=O)[C@H](CCc2ccc(C(F)(F)F)c(Cl)c2)NC(=O)CN(C)C(=O)[C@@H]1Cc1ccc(C(F)(F)F)cc1 [PP1916] ([NMeL]I[Sar][Sar][NPrPhe(4-CF3)][Sar][hPhe(3-Cl-4-CF3)][NMeA][Ac4c][NMeGly(cPent)][NMeD]-Morpholide; lactam N-11)	B (a compound having 3 or more and less than 10 is denoted as B)	C (A compound having a KD ratio of 0.1 or more and less than 3 is denoted as C)
9.72	10.3 nM	CCCN1C(=O)CN(C)C(=O)CN(C)C(=O)[C@H]([C@@H](C)OCC)NC(=O)[C@H](CC(C)C)N(C)C(=O)C[C@@H](C(=O)N2CCOCC2)N(C)C(=O)[C@H](C2CCCC2)N(C)C(=O)C2(CC(C)(C)C2)NC(=O)[C@@H]2CCCN2C(=O)[C@H](CCc2ccc(C(F)(F)F)c(Cl)c2)NC(=O)CN(C)C(=O)[C@@H]1Cc1ccc(C(F)(F)F)cc1 [PP1964] ([NMeL]T(Et)[Sar][Sar][NPrPhe(4-CF3)][Sar][hPhe(3-Cl-4-CF3)]P[Ac4c(3,3-Me2)][NMeGly(cPent)][NMeD]-Morpholide; lactam N-11)	B (a compound having 3 or more and less than 10 is denoted as B)	B (a compound having 3 or more and less than 10 is denoted as B)
10.00	3.8 nM	CC[C@H](C)[C@@H]1NC(=O)[C@H](CC2CCC2)N(C)C(=O)C[C@@H](C(=O)N(C)C)N(C)C(=O)[C@H](C2CCCC2)N(C)C(=O)C2(CC(C)(C)C2)NC(=O)[C@@H]2CC(F)(F)CN2C(=O)[C@H](CCc2cc(F)c(C(F)(F)F)c(F)c2)NC(=O)CN(C)C(=O)[C@H](Cc2ccc(C(F)(F)F)cc2)N2CC/C=C\C[C@@H](C2=O)N(C)C(=O)CN(C)C1=O [PP1716]	AA (a compound having 20 or more is denoted as AA)	A (a compound having 10 or more and less than 20 is denoted as A)
9.82	15.6 nM	CCO[C@@H]1C[C@H]2C(=O)NC3(CC(C)(C)C3)C(=O)N(C)[C@@H](C3CCCC3)C(=O)N(C)[C@H](C(=O)N(C)CC)CC(=O)N(C)[C@@H](CC)C(=O)N[C@@H]([C@@H](C)CC)C(=O)N(C)CC(=O)N(C)[C@H]3C/C=C\CCN(C3=O)[C@@H](Cc3ccc(C)cc3)C(=O)N(C)CC(=O)N[C@@H](CCc3ccc(C(F)(F)F)c(Cl)c3)C(=O)N2C1 [PP1880]	A (a compound having 10 or more and less than 20 is denoted as A)	B (a compound having 3 or more and less than 10 is denoted as B)
10.15	7 nM	CC[C@H](C)[C@@H]1NC(=O)[C@H](CC)N(C)C(=O)C[C@@H](C(=O)N(C)C)N(C)C(=O)[C@H](C2CCCC2)N(C)C(=O)C2(CCCC2)N(C)C(=O)[C@@H]2CCCN2C(=O)[C@H](CCc2cc(F)c(C(F)(F)F)c(F)c2)NC(=O)CN(C)C(=O)[C@H](Cc2ccc(C(F)(F)F)cc2)N2CC/C=C\C[C@@H](C2=O)N(C)C(=O)CN(C)C1=O [PP1805]	A (a compound having 10 or more and less than 20 is denoted as A)	A (a compound having 10 or more and less than 20 is denoted as A)
